Laboratory results reported in PubChem BioAssay AID330 (DTP/NCI, 2004).
Several values for one entry are separate records, joined by “and”; a condition that tells them apart may be missing. Equal entries are not always repeated. Inconclusive results and toxic doses are left out.

Tested on: P388 leukemia ip, CD2F1 mice, survival T/C
Assay: NCI In Vivo Anticancer Drug Screen. Data for tumor model P388 Leukemia (intraperitoneal) in CD2F1 (CDF1) mice
Conditions: endpoint: median survival time, higher = longer survival
Method in brief: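 Mice carrying the transplanted tumor received test compound or vehicle. Survival was recorded in each group, and the value is the treated-group measurement divided by that of the vehicle-treated control group.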

[1] = dose: 12.5 mg/kg/injection, schedule: Q01DX009 (ip), vehicle: saline
[2] = dose: 25.0 mg/kg/injection, schedule: Q01DX009 (ip), vehicle: distilled water + Tween-80
[3] = dose: 25.0 mg/kg/injection, schedule: Q01DX009 (ip), vehicle: saline
[4] = dose: 50.0 mg/kg/injection, schedule: Q01DX009 (ip), vehicle: saline
[5] = dose: 100.0 mg/kg/injection, schedule: Q01DX009 (ip), vehicle: saline
[6] = dose: 200.0 mg/kg/injection, schedule: Q01DX009 (ip), vehicle: saline
[7] = dose: 50.0 mg/kg/injection, schedule: Q01DX009 (ip), vehicle: saline with Tween-80
[8] = dose: 100.0 mg/kg/injection, schedule: Q01DX009 (ip), vehicle: saline with Tween-80
[9] = dose: 100.0 mg/kg/injection, schedule: Q04DX003 (ip), vehicle: saline with Tween-80
[10] = dose: 200.0 mg/kg/injection, schedule: Q01DX009 (ip), vehicle: saline with Tween-80
[11] = dose: 200.0 mg/kg/injection, schedule: Q04DX003 (ip), vehicle: saline with Tween-80

S=C(N/N=C/c1ccccn1)N/N=C/c1ccccn1
T/C (dose: 6.25 mg/kg/injection, schedule: Q01DX009 (ip), vehicle: saline): 117 % of control
T/C [1]: 103 % of control and 105 % of control
T/C [2]: 97 % of control
T/C [3]: 109 % of control and 120 % of control

N=C(N)SCCCC(=O)O
T/C [1]: 102 % of control
T/C [3]: 120 % of control
T/C [4]: 95 % of control

Cc1ccc(C2NC(c3ccc(C)cc3)C3CCCC2C3O)cc1 (stereo not drawn)
T/C (dose: 100.0 mg/kg/injection, schedule: Q04DX003 (ip), vehicle: saline): 100 % of control
T/C (dose: 200.0 mg/kg/injection, schedule: Q04DX003 (ip), vehicle: saline): 97 % of control
T/C (dose: 400.0 mg/kg/injection, schedule: Q04DX003 (ip), vehicle: saline): 95 % of control

COC(C(=O)N/C(N)=N/O)c1c(Cl)cccc1Cl (stereo not drawn)
T/C (dose: 50.0 mg/kg/injection, schedule: Q01DX005 (ip), vehicle: Klucel (hydroxypropylcellulose) (HPC)): 98 % of control
T/C (dose: 100.0 mg/kg/injection, schedule: Q01DX005 (ip), vehicle: Klucel (hydroxypropylcellulose) (HPC)): 109 % of control

CNC(=O)OCc1c(COC(=O)NC)c(-c2ccc(C(C)(C)C)cc2)n(C)c1C
T/C (dose: 6.25 mg/kg/injection, schedule: Q01DX009 (ip), vehicle: distilled water + Tween-80): 150 % of control and 152 % of control
T/C (dose: 12.5 mg/kg/injection, schedule: Q01DX009 (ip), vehicle: distilled water + Tween-80): 155 % of control
T/C [2]: 150 % of control and 158 % of control
T/C (dose: 50.0 mg/kg/injection, schedule: Q01DX009 (ip), vehicle: distilled water + Tween-80): 97 % of control

C#CC(C)ON1C(=O)c2ccccc2C1=O (stereo not drawn)
T/C (dose: 100.0 mg/kg/injection, schedule: Q01DX001 (ip), vehicle: other): 109 % of control
T/C (dose: 200.0 mg/kg/injection, schedule: Q01DX001 (ip), vehicle: other): 100 % of control
T/C (dose: 400.0 mg/kg/injection, schedule: Q01DX001 (ip), vehicle: other): 100 % of control

CCC(CC)NCCNc1cc(OC)cc2cccnc12
T/C (dose: 12.5 mg/kg/injection, schedule: Q01DX005 (ip), vehicle: saline): 109 % of control
T/C (dose: 25.0 mg/kg/injection, schedule: Q01DX005 (ip), vehicle: saline): 108 % of control
T/C (dose: 50.0 mg/kg/injection, schedule: Q01DX005 (ip), vehicle: saline): 100 % of control and 103 % of control

CC(C)(O)c1cccc2c(C(C)(C)O)cccc12
T/C (dose: 50.0 mg/kg/injection, schedule: Q01DX009 (ip), vehicle: Klucel (hydroxypropylcellulose) (HPC)): 88 % of control
T/C (dose: 100.0 mg/kg/injection, schedule: Q01DX009 (ip), vehicle: Klucel (hydroxypropylcellulose) (HPC)): 97 % of control
T/C (dose: 200.0 mg/kg/injection, schedule: Q01DX009 (ip), vehicle: Klucel (hydroxypropylcellulose) (HPC)): 93 % of control and 94 % of control
T/C (dose: 400.0 mg/kg/injection, schedule: Q01DX009 (ip), vehicle: Klucel (hydroxypropylcellulose) (HPC)): 91 % of control

CC[C@@H]1C[C@H]2CC3c4[nH]c5ccc(O)cc5c4CCN(C2)C31
T/C (dose: 100.0 mg/kg/injection, schedule: Q01DX001 (ip), vehicle: saline with Tween-80): 99 % of control

CN(C)NC(=O)/C=C\C(=O)O
T/C (dose: 66.0 mg/kg/injection, schedule: Q01DX009 (ip), vehicle: saline): 105 % of control
T/C [5]: 100 % of control
T/C (dose: 150.0 mg/kg/injection, schedule: Q01DX009 (ip), vehicle: saline): 100 % of control
T/C [6]: 91 % of control

O=C(O)/C=C/C(=O)OCCBr
T/C [7]: 104 % of control
T/C (dose: 50.0 mg/kg/injection, schedule: Q04DX003 (ip), vehicle: saline with Tween-80): 120 % of control
T/C [8]: 100 % of control
T/C [9]: 120 % of control
T/C [10]: 95 % of control
T/C [11]: 100 % of control

O=S(CF)c1ccccc1 (stereo not drawn)
T/C (dose: 75.0 mg/kg/injection, schedule: Q04DX003 (ip), vehicle: saline): 91 % of control
T/C (dose: 150.0 mg/kg/injection, schedule: Q04DX003 (ip), vehicle: saline): 101 % of control
T/C (dose: 300.0 mg/kg/injection, schedule: Q04DX003 (ip), vehicle: saline): 107 % of control

CCSC(C)(C)C
T/C [4]: 102 % of control
T/C [5]: 100 % of control
T/C [6]: 100 % of control

NC(=O)CNC(=O)NC(Cc1ccccc1)C(=O)O (stereo not drawn)
T/C (dose: 50.0 mg/kg/injection, schedule: Q01DX005 (ip), vehicle: saline with Tween-80): 105 % of control
T/C (dose: 100.0 mg/kg/injection, schedule: Q01DX005 (ip), vehicle: saline with Tween-80): 105 % of control
T/C (dose: 200.0 mg/kg/injection, schedule: Q01DX005 (ip), vehicle: saline with Tween-80): 86 % of control

Cc1cc(Cl)ccc1NC(=O)C(=O)C(C#N)c1c(Cl)cccc1Cl (stereo not drawn)
T/C (dose: 100.0 mg/kg/injection, schedule: Q04DX002 (ip), vehicle: saline with Tween-80): 101 % of control
T/C (dose: 200.0 mg/kg/injection, schedule: Q04DX002 (ip), vehicle: saline with Tween-80): 105 % of control
T/C (dose: 400.0 mg/kg/injection, schedule: Q04DX002 (ip), vehicle: saline with Tween-80): 100 % of control

C=C(C(=O)N(C(C)C)C(C)C)C(C)C(C)(C)O (stereo not drawn)
T/C (dose: 50.0 mg/kg/injection, schedule: Q04DX002 (ip), vehicle: Klucel (hydroxypropylcellulose) (HPC)): 101 % of control
T/C (dose: 100.0 mg/kg/injection, schedule: Q04DX002 (ip), vehicle: Klucel (hydroxypropylcellulose) (HPC)): 101 % of control

CC(C)(C)N=C(CCN1CCCCC1)Nc1cccc(Cl)c1
T/C [7]: 110 % of control
T/C [8]: 106 % of control
T/C [10]: 98 % of control

Cc1cc(Cl)nc2c1ccn2C1OCC(O)C(O)C1O (stereo not drawn)
T/C (dose: 16.0 mg/kg/injection, schedule: Q01DX001 (ip), vehicle: saline with Tween-80): 102 % of control and 107 % of control
T/C (dose: 32.0 mg/kg/injection, schedule: Q01DX001 (ip), vehicle: saline with Tween-80): 98 % of control and 107 % of control
T/C (dose: 64.0 mg/kg/injection, schedule: Q01DX001 (ip), vehicle: saline with Tween-80): 107 % of control

CC(C)CC(NC(=O)CCl)C(=O)O (stereo not drawn)
T/C (dose: 25.0 mg/kg/injection, schedule: Q01DX009 (ip), vehicle: saline with Tween-80): 108 % of control
T/C [7]: 108 % of control and 110 % of control
T/C [8]: 106 % of control and 113 % of control
T/C [10]: 96 % of control
T/C (dose: 400.0 mg/kg/injection, schedule: Q01DX009 (ip), vehicle: saline with Tween-80): 108 % of control

COc1cccc2c1C(=O)c1c(O)c3c(c(O)c1C2=O)C[C@@](O)(C(=O)CO)C[C@@H]3OC1CC(N(C)C)C(O)C(C)O1 (stereo partly drawn)
T/C (dose: 0.06 mg/kg/injection, schedule: Q01DX009 (ip), vehicle: water): 108 % of control
T/C (dose: 0.13 mg/kg/injection, schedule: Q01DX009 (ip), vehicle: water): 119 % of control
T/C (dose: 0.19 mg/kg/injection, schedule: Q04DX003 (ip), vehicle: water): 104 % of control
T/C (dose: 0.25 mg/kg/injection, schedule: Q01DX009 (ip), vehicle: water): 150 % of control
T/C (dose: 0.38 mg/kg/injection, schedule: Q04DX003 (ip), vehicle: water): 100 % of control
T/C (dose: 0.5 mg/kg/injection, schedule: Q01DX009 (ip), vehicle: water): 160 % of control and 164 % of control
T/C (dose: 0.75 mg/kg/injection, schedule: Q04DX003 (ip), vehicle: water): 104 % of control
T/C (dose: 0.86 mg/kg/injection, schedule: Q04DX003 (ip), vehicle: water): 154 % of control
T/C (dose: 1.44 mg/kg/injection, schedule: Q04DX003 (ip), vehicle: water): 163 % of control
T/C (dose: 1.5 mg/kg/injection, schedule: Q04DX003 (ip), vehicle: water): 106 % of control
T/C (dose: 2.0 mg/kg/injection, schedule: Q01DX009 (ip), vehicle: water): 101 % of control
T/C (dose: 2.4 mg/kg/injection, schedule: Q04DX003 (ip), vehicle: water): 175 % of control
T/C (dose: 2.5 mg/kg/injection, schedule: Q01DX001 (ip), vehicle: water): 153 % of control
T/C (dose: 3.0 mg/kg/injection, schedule: Q04DX003 (ip), vehicle: water): 113 % of control
T/C (dose: 4.0 mg/kg/injection, schedule: Q04DX003 (ip), vehicle: water): 117 % of control
T/C (dose: 5.0 mg/kg/injection, schedule: Q01DX001 (ip), vehicle: water): 153 % of control
T/C (dose: 6.0 mg/kg/injection, schedule: Q04DX003 (ip), vehicle: water): 123 % of control
T/C (dose: 6.67 mg/kg/injection, schedule: Q04DX003 (ip), vehicle: water): 97 % of control

CCOC(=O)/N=c1/nc2ccn(C)c2c(NC(=O)OCC)s1
T/C [9]: 99 % of control
T/C [11]: 96 % of control
T/C (dose: 400.0 mg/kg/injection, schedule: Q04DX003 (ip), vehicle: saline with Tween-80): 96 % of control
